From the supplement of paper PMC10307832

Columns and labels:
Test in all cases: relative viability (nuclei count vs DMSO), 5 days (fraction); higher = more cells survive
A-427 = test system: A-427
Method in brief: (§1)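 Five library-drug doses in √10 steps were combined with a fixed anchor-drug dose, or a single drug was given alone, by pin tool to lung cancer cell lines in 1536-well plates the day after seeding. Nuclei were stained and counted after 5 days. Relative viability is the nuclei count in treated wells over that in vehicle wells, taken as the median of duplicate plates.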

BEN = test system: BEN
Method in brief: as §1

HARA = test system: HARA
Method in brief: as §1

LCLC-97TM1 = test system: LCLC-97TM1
Method in brief: as §1

LOU-NH91 = test system: LOU-NH91
Method in brief: as §1

LU99A = test system: LU99A
Method in brief: as §1

LXF-289 = test system: LXF-289
Method in brief: as §1

NCI-H1395 = test system: NCI-H1395
Method in brief: as §1

NCI-H1563 = test system: NCI-H1563
Method in brief: as §1

NCI-H1666 = test system: NCI-H1666
Method in brief: as §1

NCI-H1755 = test system: NCI-H1755
Method in brief: as §1

NCI-H1793 = test system: NCI-H1793
Method in brief: as §1

NCI-H1915 = test system: NCI-H1915
Method in brief: as §1

NCI-H1944 = test system: NCI-H1944
Method in brief: as §1

NCI-H2023 = test system: NCI-H2023
Method in brief: as §1

NCI-H2126 = test system: NCI-H2126
Method in brief: as §1

NCI-H2170 = test system: NCI-H2170
Method in brief: as §1

NCI-H2342 = test system: NCI-H2342
Method in brief: as §1

NCI-H23 = test system: NCI-H23
Method in brief: as §1

NCI-H322M = test system: NCI-H322M
Method in brief: as §1

NCI-H441 = test system: NCI-H441
Method in brief: as §1

NCI-H460 = test system: NCI-H460
Method in brief: as §1

NCI-H650 = test system: NCI-H650
Method in brief: as §1

PC-3 [JPC-3] = test system: PC-3 [JPC-3]
Method in brief: as §1

SK-LU-1 = test system: SK-LU-1
Method in brief: as §1

CCCCCCCCCCCC1=C(O)C(=O)C=C(O)C1=O [Embelin] + N=C(N)NC(=N)NCCc1ccccc1 [Phenformin] (partner 250 µM)
relative viability (A-427; first compound 0.08 µM): 0.359 | relative viability (A-427; first compound 0.8 µM): 0.411 | relative viability (A-427; first compound 2.53 µM): 0.328 | relative viability (A-427; first compound 8 µM): 0.363 | relative viability (BEN; first compound 0.08 µM): 0.267 | relative viability (BEN; first compound 0.8 µM): 0.285 | relative viability (BEN; first compound 2.53 µM): 0.264 | relative viability (BEN; first compound 8 µM): 0.263 | relative viability (HARA; first compound 0.08 µM): 0.438 | relative viability (HARA; first compound 0.8 µM): 0.56 | relative viability (HARA; first compound 2.53 µM): 0.497 | relative viability (HARA; first compound 8 µM): 0.455 | relative viability (LCLC-97TM1; first compound 0.08 µM): 0.452 | relative viability (LCLC-97TM1; first compound 0.8 µM): 0.432 | relative viability (LCLC-97TM1; first compound 2.53 µM): 0.465 | relative viability (LCLC-97TM1; first compound 8 µM): 0.469 | relative viability (LOU-NH91; first compound 0.08 µM): 0.757 | relative viability (LOU-NH91; first compound 0.8 µM): 0.895 | relative viability (LOU-NH91; first compound 2.53 µM): 0.566 | relative viability (LOU-NH91; first compound 8 µM): 0.492 | relative viability (LU99A; first compound 0.08 µM): 0.856 | relative viability (LU99A; first compound 0.8 µM): 0.951 | relative viability (LU99A; first compound 2.53 µM): 0.942 | relative viability (LU99A; first compound 8 µM): 0.757 | relative viability (LXF-289; first compound 0.08 µM): 0.509 | relative viability (LXF-289; first compound 0.8 µM): 0.547 | relative viability (LXF-289; first compound 2.53 µM): 0.527 | relative viability (LXF-289; first compound 8 µM): 0.571 | relative viability (NCI-H1395; first compound 0.08 µM): 0.46 | relative viability (NCI-H1395; first compound 0.8 µM): 0.495 | relative viability (NCI-H1395; first compound 2.53 µM): 0.474 | relative viability (NCI-H1395; first compound 8 µM): 0.395 | relative viability (NCI-H1563; first compound 0.08 µM): 0.711 | relative viability (NCI-H1563; first compound 0.8 µM): 0.728 | relative viability (NCI-H1563; first compound 2.53 µM): 0.626 | relative viability (NCI-H1563; first compound 8 µM): 0.578 | relative viability (NCI-H1666; first compound 0.08 µM): 0.57 | relative viability (NCI-H1666; first compound 0.8 µM): 0.631 | relative viability (NCI-H1666; first compound 2.53 µM): 0.507 | relative viability (NCI-H1666; first compound 8 µM): 0.575 | relative viability (NCI-H1755; first compound 0.08 µM): 0.646 | relative viability (NCI-H1755; first compound 0.8 µM): 0.656 | relative viability (NCI-H1755; first compound 2.53 µM): 0.608 | relative viability (NCI-H1755; first compound 8 µM): 0.6 | relative viability (NCI-H1793; first compound 0.08 µM): 0.355 | relative viability (NCI-H1793; first compound 0.8 µM): 0.42 | relative viability (NCI-H1793; first compound 2.53 µM): 0.473 | relative viability (NCI-H1793; first compound 8 µM): 0.352 | relative viability (NCI-H1915; first compound 0.08 µM): 0.382 | relative viability (NCI-H1915; first compound 0.8 µM): 0.382 | relative viability (NCI-H1915; first compound 2.53 µM): 0.364 | relative viability (NCI-H1915; first compound 8 µM): 0.411 | relative viability (NCI-H1944; first compound 0.08 µM): 0.196 | relative viability (NCI-H1944; first compound 0.8 µM): 0.237 | relative viability (NCI-H1944; first compound 2.53 µM): 0.203 | relative viability (NCI-H1944; first compound 8 µM): 0.202 | relative viability (NCI-H2023; first compound 0.08 µM): 0.383 | relative viability (NCI-H2023; first compound 0.8 µM): 0.469 | relative viability (NCI-H2023; first compound 2.53 µM): 0.418 | relative viability (NCI-H2023; first compound 8 µM): 0.327 | relative viability (NCI-H2126; first compound 0.08 µM): 0.556 | relative viability (NCI-H2126; first compound 0.8 µM): 0.609 | relative viability (NCI-H2126; first compound 2.53 µM): 0.591 | relative viability (NCI-H2126; first compound 8 µM): 0.476 | relative viability (NCI-H2170; first compound 0.08 µM): 0.438 | relative viability (NCI-H2170; first compound 0.8 µM): 0.489 | relative viability (NCI-H2170; first compound 2.53 µM): 0.427 | relative viability (NCI-H2170; first compound 8 µM): 0.444 | relative viability (NCI-H2342; first compound 0.08 µM): 0.594 | relative viability (NCI-H2342; first compound 0.8 µM): 0.551 | relative viability (NCI-H2342; first compound 2.53 µM): 0.701 | relative viability (NCI-H2342; first compound 8 µM): 0.516 | relative viability (NCI-H23; first compound 0.08 µM): 0.771 | relative viability (NCI-H23; first compound 0.8 µM): 0.753 | relative viability (NCI-H23; first compound 2.53 µM): 0.882 | relative viability (NCI-H23; first compound 8 µM): 0.693 | relative viability (NCI-H322M; first compound 0.08 µM): 0.757 | relative viability (NCI-H322M; first compound 0.8 µM): 0.8 | relative viability (NCI-H322M; first compound 2.53 µM): 0.913 | relative viability (NCI-H322M; first compound 8 µM): 0.677 | relative viability (NCI-H441; first compound 0.08 µM): 0.698 | relative viability (NCI-H441; first compound 0.8 µM): 0.897 | relative viability (NCI-H441; first compound 2.53 µM): 0.957 | relative viability (NCI-H441; first compound 8 µM): 0.982 | relative viability (NCI-H460; first compound 0.08 µM): 0.535 | relative viability (NCI-H460; first compound 0.8 µM): 0.595 | relative viability (NCI-H460; first compound 2.53 µM): 0.66 | relative viability (NCI-H460; first compound 8 µM): 0.256 | relative viability (NCI-H650; first compound 0.08 µM): 0.436 | relative viability (NCI-H650; first compound 0.8 µM): 0.524 | relative viability (NCI-H650; first compound 2.53 µM): 0.312 | relative viability (NCI-H650; first compound 8 µM): 0.44 | relative viability (PC-3 [JPC-3]; first compound 0.08 µM): 0.475 | relative viability (PC-3 [JPC-3]; first compound 0.8 µM): 0.476 | relative viability (PC-3 [JPC-3]; first compound 2.53 µM): 0.477 | relative viability (PC-3 [JPC-3]; first compound 8 µM): 0.477 | relative viability (SK-LU-1; first compound 0.08 µM): 0.608 | relative viability (SK-LU-1; first compound 0.8 µM): 0.624 | relative viability (SK-LU-1; first compound 2.53 µM): 0.534 | relative viability (SK-LU-1; first compound 8 µM): 0.365
